According to publication PMC6335420, “The cell cycle regulator GpsB functions as cytosolic adaptor for multiple cell wall enzymes” (Nature Communications, 2019):
Residues, ends and D or L forms follow the SMILES beside them. *: point of attachment. Fluorescein(5-Mal) = O=C1OC2(c3ccc(O)cc3Oc3cc(O)ccc32)c2ccc(N3C(=O)CC(*)C3=O)cc21; X1 = CN(C)c1ccc2c(-c3ccc(N4C(=O)CC(*)C4=O)cc3C(=O)[O-])c3ccc(=[N+](C)C)cc-3oc2c1

Columns and labels:
L. monocytogenes [1] = assay: L. monocytogenes fosfomycin susceptibility (filter disc); format: cell-based, Listeria monocytogenes EGD-e; conditions: halo around filter disc, BHI agar, 37 °C; pbpA1 R8A,R12A and Q10P mutants; triplicate
Protocol: Fosfomycin susceptibility was recorded using filter discs (Ø 6 mm) soaked with 10 µL of a 10 mg^−1mL^−1 fosfomycin solution. L. monocytogenes colonies, grown on BHI agar plates, were resuspended in BHI broth and used to swab-inoculate BHI agar plates. Filter discs soaked with fosfomycin were placed on top of the agar surface and the plates were incubated at 37 °C overnight. Diameter of growth inhibition zones was measured and corrected for the filter disc diameter. All experiments were performed three times and average values and standard deviations were calculated. Significance was determined using the t-test and differences were considered to be significant when P < 0.01.

L. monocytogenes [2] = conditions: 37 °C, vs wild-type L. monocytogenes; cited from earlier work
BsGpsB1-68Lys32Glu = target: T1, BsGpsB1-68Lys32Glu (Bacillus subtilis, UniProt P0CI74, K32E); assay: Fluorescence polarisation binding to BsGpsB1-68Lys32Glu; conditions: FP
T1 construct: His6 (N, cleaved yes); made in house; host or cells: E. coli BL21(DE3)
Excerpt: (§1) 75 the BsGpsB5-64:BsPBP11-17 complex.

LmGpsB1-73 = target: T2, LmGpsB1-73 (Listeria monocytogenes serovar 1/2a, UniProt Q8Y614); assay: Fluorescence polarisation binding to LmGpsB1-73; conditions: FP
T2 construct: made in house; host or cells: E. coli BL21(DE3)
Excerpt: as §1

BsGpsB1-68Glu17Ala = target: T3, BsGpsB1-68Glu17Ala (Bacillus subtilis, UniProt P0CI74, E17A); assay: Fluorescence polarisation binding to BsGpsB1-68Glu17Ala; conditions: FP, BsGpsB1-68Glu17Ala relative to wild-type BsGpsB1-68
T3 construct: Glu17Ala, Asp31Ala and Asp35Ala mutations were introduced to the BsGpsB1-68 expression construct plasmid; His6 (N, cleaved yes); made in house; host or cells: E. coli BL21(DE3)
Excerpt: as §1

BsGpsB1-68Tyr25Phe = target: T4, BsGpsB1-68Tyr25Phe (Bacillus subtilis, UniProt P0CI74, Y25F); assay: Fluorescence polarisation binding to BsGpsB1-68Tyr25Phe; conditions: FP, BsGpsB Tyr25Phe relative to wild-type BsGpsB1-68
T4 construct: correspond to BsGpsB1-68^Asp31Ala and BsGpsB1-68^Tyr25Phe mutants, respectively; His6 (N, cleaved yes); made in house; host or cells: E. coli BL21(DE3)
Excerpt: as §1

BsGpsB1-68Asp31Ala = target: T5, BsGpsB1-68Asp31Ala (Bacillus subtilis, UniProt P0CI74, D31A); assay: Fluorescence polarisation binding to BsGpsB1-68Asp31Ala; conditions: FP, BsGpsB Asp31Ala relative to wild-type BsGpsB1-68
T5 construct: Glu17Ala, Asp31Ala and Asp35Ala mutations were introduced to the BsGpsB1-68 expression construct plasmid; His6 (N, cleaved yes); made in house; host or cells: E. coli BL21(DE3)
Excerpt: as §1

BsGpsB1-68Asp35Ala = target: T6, BsGpsB1-68Asp35Ala (Bacillus subtilis, UniProt P0CI74, D35A); assay: Fluorescence polarisation binding to BsGpsB1-68Asp35Ala; conditions: FP, BsGpsB1-68Asp35Ala relative to wild-type BsGpsB1-68
T6 construct: Glu17Ala, Asp31Ala and Asp35Ala mutations were introduced to the BsGpsB1-68 expression construct plasmid; His6 (N, cleaved yes); made in house; host or cells: E. coli BL21(DE3)
Excerpt: as §1

[3] = Circular dichroism of PBP peptides (helicity); format: physicochemical; conditions: CD, 222 nm, 4 °C, 20 mM sodium phosphate pH 7.3, 25 μM peptide
Protocol: CD spectra were recorded on a JASCO J-810 spectropolarimeter with a PTC-4235 Peltier temperature controller using 1 mm path length quartz cuvettes. For full wavelength scans a scan speed of 10 nm^−1min^−1 and a response time of 4 s were used, the final spectra were the average of at least four measurements. BsPBP1_1-32 CD spectra were recorded at 4 °C in a buffer of 20 mM sodium phosphate, pH 7.3 at a peptide concentration of 25 μM. Peptide helical contents were estimated from molar ellipticities at 222 nm using the equation helix = [θ]222 nm / (39,500(1–2.57/n))[78] where n is the number of residues in the peptide. LmPBPA1_1-15 CD spectra were analysed at 40 μM in 20 mM sodium phosphate buffer, pH 7.8, for samples containing 0, 40 and 60% trifluoroethanol (TFE). For samples containing 80% TFE, 5 mM sodium phosphate buffer, pH 7.8, was used. The CD spectra of BsGpsB1-68 proteins were measured at a concentration of 4.5 μM in a buffer of 20 mM sodium phosphate (pH 7.8) 150 mM NaCl. For thermal melt experiments, a response time of 8 s and scan rate of 1 °C^−1min^−1 were used. All thermal melts were reversible as CD spectra recorded before and after the melts in the wavelength range 200–240 nm could be superimposed.

C[C@@H]1O[C@@H]1P(=O)(O)O [fosfomycin]
fosfomycin sensitivity (L. monocytogenes [1]): Effects on fosfomycin sensitivity were apparent in mutants carrying the pbpA1^Arg8Ala,Arg12Ala and pbpA1^Gln10Pro alleles but only when LmPBPA2, the LmPBPA1 paralogue, was also absent
fosfomycin susceptibility of ΔgpsB mutants (L. monocytogenes [2]): more susceptible

CSCC[C@H](NC(=O)[C@H](CO)NC(=O)CN)C(=O)N[C@@H](C)C(=O)N[C@@H](CC(=O)O)C(=O)N[C@@H](CCCCN)C(=O)N1CCC[C@H]1C(=O)N[C@@H](CCC(N)=O)C(=O)N[C@H](C(=O)N[C@@H](CCCNC(=N)N)C(=O)N[C@@H](CO)C(=O)N[C@@H](CCC(N)=O)C(=O)N[C@@H](Cc1ccc(O)cc1)C(=O)N[C@@H](CCCNC(=N)N)C(=O)N[C@@H](CC(N)=O)C(=O)N[C@@H](CCCCN)C(=O)N[C@@H](CCC(N)=O)C(=O)N[C@@H](CO)C(=O)NCC(=O)NCC(=O)N[C@@H](CSC1CC(=O)N(c2ccc3c(c2)C(=O)OC32c3ccc(O)cc3Oc3cc(O)ccc32)C1=O)C(=O)N[C@@H](CCCCN)C(=O)O)[C@@H](C)O (stereo partly shown) [Fluorescein-LmPBPA11-20] (H-GSMADKPQTRSQYRNKQSGGC(Fluorescein(5-Mal))K-OH; N-terminus and C-terminus assumed)
binding to BsGpsB1-68Lys32Glu (in words) (BsGpsB1-68Lys32Glu): almost identical
binding to LmGpsB1-73 (in words) (LmGpsB1-73): affinity similar to that of BsPBPA1_1-32 for BsGpsB1-68

CSCC[C@H](NC(=O)[C@H](CO)NC(=O)CN)C(=O)N[C@@H](C)C(=O)N[C@@H](CC(=O)O)C(=O)N[C@@H](CCC(N)=O)C(=O)N[C@@H](Cc1ccccc1)C(=O)N[C@@H](CC(N)=O)C(=O)N[C@@H](CO)C(=O)N[C@@H](CCCNC(=N)N)C(=O)N[C@@H](CCC(=O)O)C(=O)N[C@@H](C)C(=O)N[C@@H](CCCNC(=N)N)C(=O)N[C@@H](CCCNC(=N)N)C(=O)N[C@@H](CCCCN)C(=O)N[C@@H](C)C(=O)N[C@@H](CC(N)=O)C(=O)N[C@@H](CSC1CC(=O)N(c2ccc(-c3c4ccc(=[N+](C)C)cc-4oc4cc(N(C)C)ccc34)c(C(=O)[O-])c2)C1=O)C(=O)N[C@@H](CCCCN)C(=O)N[C@@H](CO)C(=O)N[C@@H](CO)C(=O)N1CCC[C@H]1C(=O)N[C@@H](CO)C(=O)N1CCC[C@H]1C(=O)N[C@@H](CCCCN)C(=O)N[C@@H](CCCCN)C(=O)NCC(=O)N[C@@H](CCCCN)C(=O)N[C@@H](CCCCN)C(=O)N[C@@H](CCCNC(=N)N)C(=O)N[C@@H](CCCCN)C(=O)N[C@@H](CCCCN)C(=O)NCC(=O)NCC(=O)O (stereo partly shown) [TAMRA-BsPBP11-32] (H-GSMADQFNSREARRKANC(X1)KSSPSPKKGKKRKKGG-OH)
reduction in affinity on GpsB mutation (BsGpsB1-68Glu17Ala): more than 8 fold
reduction in affinity on GpsB mutation (BsGpsB1-68Tyr25Phe): more than 8 fold
reduction in affinity on GpsB mutation (BsGpsB1-68Asp31Ala): more than 8 fold
reduction in affinity on GpsB mutation (BsGpsB1-68Asp35Ala): more than 8 fold
helical residues corresponding to helical content [3]: ~ 5 residues
α-helical content ([3]; average of at least four measurements): 14%
